# Laboratory results from PubChem BioAssay (NCI).
#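 48-hour exposure; five concentrations; linearly interpolated endpoints. TGI is the concentration that stops growth completely.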
# Tests used:
# Assay in all cases: NCI tumour cell line growth inhibition, 48 h
# U251 CNS = test system: U251 CNS
# PC-3 prostate = test system: PC-3 prostate
# HT29 colon = test system: HT29 colon
# MDA-MB-435 = test system: MDA-MB-435
# SK-MEL-5 melanoma = test system: SK-MEL-5 melanoma
# MOLT-4 leukemia = test system: MOLT-4 leukemia
# HCT-15 colon = test system: HCT-15 colon
# SR leukemia = test system: SR leukemia
# LOX IMVI melanoma = test system: LOX IMVI melanoma
# 786-0 renal = test system: 786-0 renal
# NCI-H23 lung = test system: NCI-H23 lung
# MDA-N = test system: MDA-N
# NCI/ADR-RES ovarian = test system: NCI/ADR-RES ovarian
# TK-10 renal = test system: TK-10 renal
# HCC-2998 colon = test system: HCC-2998 colon
# ACHN renal = test system: ACHN renal
# MDA-MB-231 breast = test system: MDA-MB-231 breast
# SF-268 CNS = test system: SF-268 CNS
# HS 578T breast = test system: HS 578T breast
# SK-OV-3 ovarian = test system: SK-OV-3 ovarian
# HOP-92 NSCLC = test system: HOP-92 NSCLC
# IGROV1 ovarian = test system: IGROV1 ovarian
# SF-295 CNS = test system: SF-295 CNS
# SW-620 colon = test system: SW-620 colon
# MCF7 breast = test system: MCF7 breast
# OVCAR-8 ovarian = test system: OVCAR-8 ovarian
# K-562 leukemia = test system: K-562 leukemia
# UO-31 renal = test system: UO-31 renal
# SK-MEL-2 melanoma = test system: SK-MEL-2 melanoma
# UACC-257 melanoma = test system: UACC-257 melanoma
# RXF 393 renal = test system: RXF 393 renal
# T-47D breast = test system: T-47D breast
# SK-MEL-28 melanoma = test system: SK-MEL-28 melanoma
# MALME-3M melanoma = test system: MALME-3M melanoma
# SN12C renal = test system: SN12C renal
# COLO 205 colon = test system: COLO 205 colon
# BT-549 breast = test system: BT-549 breast
# HOP-62 NSCLC = test system: HOP-62 NSCLC
# A498 renal = test system: A498 renal
# OVCAR-4 ovarian = test system: OVCAR-4 ovarian
# EKVX NSCLC = test system: EKVX NSCLC
# NCI-H460 lung = test system: NCI-H460 lung
# DU-145 prostate = test system: DU-145 prostate
# KM12 colon = test system: KM12 colon
# SNB-75 CNS = test system: SNB-75 CNS
# M14 melanoma = test system: M14 melanoma
# CCRF-CEM leukemia = test system: CCRF-CEM leukemia
# UACC-62 melanoma = test system: UACC-62 melanoma
# NCI-H522 lung = test system: NCI-H522 lung
# CAKI-1 renal = test system: CAKI-1 renal
# NCI-H226 lung = test system: NCI-H226 lung
# SF-539 CNS = test system: SF-539 CNS
# RPMI-8226 leukemia = test system: RPMI-8226 leukemia
# SNB-19 CNS = test system: SNB-19 CNS
# HL-60(TB) leukemia = test system: HL-60(TB) leukemia
# OVCAR-3 ovarian = test system: OVCAR-3 ovarian
# HCT-116 colon = test system: HCT-116 colon
# OVCAR-5 ovarian = test system: OVCAR-5 ovarian
# A549 NSCLC = test system: A549 NSCLC
smiles,measurement,setting,value
O=C(N/N=C\c1cccc2ccccc12)Nc1ccc([N+](=O)[O-])cc1,TGI,U251 CNS,> 100 µM
same,TGI,PC-3 prostate,> 70.5 µM
same,TGI,HT29 colon,> 100 µM
same,TGI,MDA-MB-435,> 100 µM
same,TGI,SK-MEL-5 melanoma,> 87.2 µM
same,TGI,MOLT-4 leukemia,> 100 µM
same,TGI,HCT-15 colon,> 100 µM
same,TGI,SR leukemia,> 100 µM
same,TGI,LOX IMVI melanoma,> 100 µM
same,TGI,786-0 renal,> 37.8 µM
same,TGI,NCI-H23 lung,> 60.2 µM
same,TGI,MDA-N,> 89 µM
same,TGI,NCI/ADR-RES ovarian,> 71.4 µM
same,TGI,TK-10 renal,> 80.9 µM
same,TGI,HCC-2998 colon,> 70.3 µM
same,TGI,ACHN renal,> 72.7 µM
same,TGI,MDA-MB-231 breast,> 100 µM
same,TGI,SF-268 CNS,> 88.9 µM
same,TGI,HS 578T breast,> 100 µM
same,TGI,SK-OV-3 ovarian,97.2 µM
same,TGI,HOP-92 NSCLC,26.2 µM
same,TGI,IGROV1 ovarian,> 100 µM
same,TGI,SF-295 CNS,> 100 µM
same,TGI,SW-620 colon,> 100 µM
same,TGI,MCF7 breast,> 100 µM
same,TGI,OVCAR-8 ovarian,> 53.5 µM
same,TGI,K-562 leukemia,> 100 µM
same,TGI,UO-31 renal,> 61.8 µM
same,TGI,SK-MEL-2 melanoma,> 68.7 µM
same,TGI,UACC-257 melanoma,> 100 µM
same,TGI,RXF 393 renal,> 42.6 µM
same,TGI,T-47D breast,> 41.4 µM
same,TGI,SK-MEL-28 melanoma,> 100 µM
same,TGI,MALME-3M melanoma,> 69.4 µM
same,TGI,SN12C renal,> 73 µM
same,TGI,COLO 205 colon,> 60.7 µM
same,TGI,BT-549 breast,> 66.4 µM
same,TGI,HOP-62 NSCLC,59.2 µM
same,TGI,A498 renal,> 100 µM
same,TGI,OVCAR-4 ovarian,> 71.6 µM
same,TGI,EKVX NSCLC,> 100 µM
same,TGI,NCI-H460 lung,> 76.6 µM
same,TGI,DU-145 prostate,> 60.7 µM
same,TGI,KM12 colon,> 100 µM
same,TGI,SNB-75 CNS,> 100 µM
same,TGI,M14 melanoma,> 100 µM
same,TGI,CCRF-CEM leukemia,> 100 µM
same,TGI,UACC-62 melanoma,> 68.5 µM
same,TGI,NCI-H522 lung,> 53.9 µM
same,TGI,CAKI-1 renal,> 100 µM
same,TGI,NCI-H226 lung,> 100 µM
same,TGI,SF-539 CNS,> 100 µM
same,TGI,RPMI-8226 leukemia,> 100 µM
same,TGI,SNB-19 CNS,> 100 µM
same,TGI,HL-60(TB) leukemia,> 100 µM
same,TGI,OVCAR-3 ovarian,38.3 µM
same,TGI,HCT-116 colon,> 53.7 µM
same,TGI,OVCAR-5 ovarian,> 71 µM
same,TGI,A549 NSCLC,> 100 µM
S=c1nc(-c2nc(=S)[nH]c3c2CCCCCCCCCC3)c2c([nH]1)CCCCCCCCCC2,TGI,U251 CNS,> 100 µM
same,TGI,PC-3 prostate,> 100 µM
same,TGI,HT29 colon,> 100 µM
same,TGI,MDA-MB-435,> 100 µM
same,TGI,SK-MEL-5 melanoma,> 100 µM
same,TGI,MOLT-4 leukemia,> 100 µM
same,TGI,HCT-15 colon,> 100 µM
same,TGI,SR leukemia,> 100 µM
same,TGI,LOX IMVI melanoma,> 100 µM
same,TGI,786-0 renal,> 100 µM
same,TGI,NCI-H23 lung,> 100 µM
same,TGI,MDA-N,> 100 µM
same,TGI,NCI/ADR-RES ovarian,> 100 µM
same,TGI,TK-10 renal,> 100 µM
same,TGI,HCC-2998 colon,> 100 µM
same,TGI,ACHN renal,> 100 µM
same,TGI,MDA-MB-231 breast,> 100 µM
same,TGI,SF-268 CNS,> 100 µM
same,TGI,HS 578T breast,> 100 µM
same,TGI,SK-OV-3 ovarian,> 100 µM
same,TGI,HOP-92 NSCLC,> 100 µM
same,TGI,IGROV1 ovarian,> 100 µM
same,TGI,SF-295 CNS,> 100 µM
same,TGI,SW-620 colon,> 100 µM
same,TGI,MCF7 breast,> 100 µM
same,TGI,OVCAR-8 ovarian,> 100 µM
same,TGI,K-562 leukemia,> 100 µM
same,TGI,UO-31 renal,> 100 µM
same,TGI,SK-MEL-2 melanoma,> 100 µM
same,TGI,UACC-257 melanoma,> 100 µM
same,TGI,RXF 393 renal,> 100 µM
same,TGI,T-47D breast,> 100 µM
same,TGI,SK-MEL-28 melanoma,> 100 µM
same,TGI,MALME-3M melanoma,> 100 µM
same,TGI,SN12C renal,> 100 µM
same,TGI,COLO 205 colon,> 100 µM
same,TGI,BT-549 breast,> 100 µM
same,TGI,HOP-62 NSCLC,> 100 µM
same,TGI,A498 renal,> 100 µM
same,TGI,OVCAR-4 ovarian,> 100 µM
same,TGI,EKVX NSCLC,> 100 µM
same,TGI,NCI-H460 lung,> 100 µM
same,TGI,DU-145 prostate,> 100 µM
same,TGI,KM12 colon,> 100 µM
same,TGI,SNB-75 CNS,> 100 µM
same,TGI,M14 melanoma,> 100 µM
same,TGI,UACC-62 melanoma,> 100 µM
same,TGI,NCI-H522 lung,> 100 µM
same,TGI,CAKI-1 renal,> 100 µM
same,TGI,NCI-H226 lung,> 100 µM
same,TGI,SF-539 CNS,> 100 µM
same,TGI,SNB-19 CNS,> 100 µM
same,TGI,HL-60(TB) leukemia,> 100 µM
same,TGI,OVCAR-3 ovarian,> 100 µM
same,TGI,HCT-116 colon,> 100 µM
same,TGI,OVCAR-5 ovarian,> 100 µM
same,TGI,A549 NSCLC,> 100 µM
Cc1cc2ccccc2c[n+]1CC(O)C[n+]1cc2ccccc2cc1C,TGI,U251 CNS,> 100 µM
same,TGI,PC-3 prostate,> 100 µM
same,TGI,HT29 colon,> 100 µM
same,TGI,MDA-MB-435,> 100 µM
same,TGI,SK-MEL-5 melanoma,> 100 µM
same,TGI,MOLT-4 leukemia,> 100 µM
same,TGI,HCT-15 colon,> 100 µM
same,TGI,SR leukemia,> 100 µM
same,TGI,LOX IMVI melanoma,> 100 µM
same,TGI,786-0 renal,> 100 µM
same,TGI,NCI-H23 lung,> 100 µM
same,TGI,MDA-N,> 100 µM
same,TGI,NCI/ADR-RES ovarian,> 100 µM
same,TGI,TK-10 renal,> 100 µM
same,TGI,HCC-2998 colon,> 100 µM
same,TGI,ACHN renal,> 100 µM
same,TGI,MDA-MB-231 breast,> 100 µM
same,TGI,SF-268 CNS,> 100 µM
same,TGI,HS 578T breast,> 100 µM
same,TGI,HOP-92 NSCLC,> 100 µM
same,TGI,IGROV1 ovarian,> 100 µM
same,TGI,SF-295 CNS,> 100 µM
same,TGI,SW-620 colon,> 100 µM
same,TGI,MCF7 breast,> 100 µM
same,TGI,OVCAR-8 ovarian,> 100 µM
same,TGI,K-562 leukemia,> 100 µM
same,TGI,UO-31 renal,> 100 µM
same,TGI,SK-MEL-2 melanoma,> 100 µM
same,TGI,UACC-257 melanoma,> 100 µM
same,TGI,RXF 393 renal,> 100 µM
same,TGI,T-47D breast,> 100 µM
same,TGI,SK-MEL-28 melanoma,> 100 µM
same,TGI,MALME-3M melanoma,> 100 µM
same,TGI,SN12C renal,> 100 µM
same,TGI,COLO 205 colon,> 100 µM
same,TGI,BT-549 breast,> 100 µM
same,TGI,HOP-62 NSCLC,> 100 µM
same,TGI,A498 renal,> 100 µM
same,TGI,OVCAR-4 ovarian,> 100 µM
same,TGI,EKVX NSCLC,> 100 µM
same,TGI,NCI-H460 lung,> 100 µM
same,TGI,DU-145 prostate,> 100 µM
same,TGI,KM12 colon,> 100 µM
same,TGI,SNB-75 CNS,> 100 µM
same,TGI,M14 melanoma,> 100 µM
same,TGI,UACC-62 melanoma,> 100 µM
same,TGI,NCI-H522 lung,> 100 µM
same,TGI,CAKI-1 renal,> 100 µM
same,TGI,NCI-H226 lung,> 100 µM
same,TGI,SF-539 CNS,> 100 µM
same,TGI,RPMI-8226 leukemia,> 100 µM
same,TGI,SNB-19 CNS,> 100 µM
same,TGI,OVCAR-3 ovarian,> 100 µM
same,TGI,HCT-116 colon,> 100 µM
same,TGI,OVCAR-5 ovarian,> 100 µM
same,TGI,A549 NSCLC,> 100 µM
